Consider 33 substances from patent US5710123A, “Peptide inhibitors of selectin binding” (Centocor, Inc., priority 1995, dated 1998).

Where no end group is shown, it is not given here.

This test deals with T1, P-selectin (Homo sapiens, UniProt P16109).
T1 construct: from tissue; host or cells: outdated human platelet packs from a blood bank
T1 sequence (P16109 42-830): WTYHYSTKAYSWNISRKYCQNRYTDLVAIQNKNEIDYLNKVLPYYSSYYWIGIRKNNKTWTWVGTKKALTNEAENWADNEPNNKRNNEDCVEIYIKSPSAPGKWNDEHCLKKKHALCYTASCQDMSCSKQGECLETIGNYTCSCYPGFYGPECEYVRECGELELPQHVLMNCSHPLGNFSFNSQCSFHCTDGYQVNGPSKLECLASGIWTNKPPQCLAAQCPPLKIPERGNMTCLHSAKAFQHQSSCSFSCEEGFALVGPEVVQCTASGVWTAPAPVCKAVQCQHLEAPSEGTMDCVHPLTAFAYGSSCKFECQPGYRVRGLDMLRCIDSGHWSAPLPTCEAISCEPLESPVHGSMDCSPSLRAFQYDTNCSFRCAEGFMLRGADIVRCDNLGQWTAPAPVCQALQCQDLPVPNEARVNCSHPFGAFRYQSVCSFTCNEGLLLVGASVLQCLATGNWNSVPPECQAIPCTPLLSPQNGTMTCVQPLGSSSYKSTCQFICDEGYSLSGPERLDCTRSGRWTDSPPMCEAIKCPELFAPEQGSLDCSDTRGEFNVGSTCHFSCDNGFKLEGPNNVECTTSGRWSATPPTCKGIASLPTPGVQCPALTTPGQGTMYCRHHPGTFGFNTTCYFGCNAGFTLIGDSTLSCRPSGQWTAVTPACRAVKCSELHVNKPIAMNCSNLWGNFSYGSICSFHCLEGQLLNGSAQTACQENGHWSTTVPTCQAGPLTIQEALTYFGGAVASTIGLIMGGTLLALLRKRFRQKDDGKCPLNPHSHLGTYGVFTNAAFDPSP
Description: Inhibition of binding of human neutrophils to P-selectin (neutrophil adhesion to purified immobilized P-selectin, myeloperoxidase readout). Format: cell-based. As to conditions: P-selectin purified from human platelets, plated at 5 micrograms/mL, peptides tested 1.0 mM to 0.001 mM. The source says:
Peptides can be screened for their ability to inhibit adhesion to cells, for example, neutrophil adhesion to purified P-selectin immobilized on plastic wells, using the assay described by Geng, et al., Nature 343, 757-760 1990). Human neutrophils are isolated from heparinized […] blood by density gradient centrifugation on Mono-Poly resolving media, Flow Laboratories. Neutrophil suspensions are greater than 98% pure and greater than 95% viable by trypan blue exclusion. For adhesion assays, neutrophils are suspended at a concentration of 2×10^6 cells/mL in Hanks' balanced salt solution containing 1.26 mM Ca^2+ and 0.81 mM Mg^2+ (HBSS, Gibco) with […] human serum albumin (HBSS/HSA). Adhesion assays are conducted in triplicate in 96-well microtiter plates, Corning, incubated at 4° C. overnight with 50 microliters of various protein solutions. P-selectin is isolated from human platelet lysates by immunoaffinity chromatography on antibody S12-Sepharose™ and ion-exchange chromatography on a Mono-Q™ column (FLPC, Pharmacia Fine Chemicals), as follows. Outdated human platelet packs (100 units) obtained from a blood bank and stored at 4° C. are pooled, adjusted to 5 mM EDTA at pH 7.5, centrifuged at 4,000 rpm for 30 minutes in 1 liter bottles, then washed three times with 1 liter of 0.1M NaCl, 20 mM Tris pH 7.5 (TBS), 5 mM EDTA, 5 mM benzamidine. The pellets are then resuspended in a minimum amount of wash buffer and made 1 mM in DIFP, then frozen in 50 mL screwtop tubes at -80° C. The frozen platelets are thawed and resuspended in 50 mL TBS, 5 mM benzamidine, 5 mM EDTA pH 7.5, […]. The suspension is frozen and thawed two times in a dry ice-acetone bath using a 600 mL lyophilizing flask, then homogenized in a glass/teflon mortar and pestle and made 1 mM in DIFP. The NaCl concentration is adjusted to 0.5M with a stock solution of 4M NaCl. After stirring the suspension at 4° C., it is centrifuged in polycarbonate tubes at 33,000 rpm for 60 minutes at 4° C. The supernatant (0.5M NaCl wash) is removed and saved; this supernatant contains the soluble form of P-selectin. Care is taken not to remove the top part of the pellet with the supernatant. The pellets are then homogenized in extraction buffer (TBS, 5 mM benzamidine, 5 mM EDTA, pH 7.5, 100 μM leupeptin, 2% Triton X-100). After centrifugation at 19,500 rpm for 25 minutes at 4° C., the supernatant is removed. The extraction procedure is repeated with the pellet and the supernatant is combined with the first supernatant. The combined extracts, which contain the membrane form of P-selectin, are adjusted to 0.5M NaCl. The soluble fraction (0.5M NaCl wash) and the membrane extract (also adjusted to 0.5M NaCl) are absorbed with separate pools of the monoclonal antibody S12 (directed to P-selectin) previously coupled to Affigel (Biorad) at 5 mg/mL for 2 hours at 4° C. After letting the resins settle, the supernatants are removed. The S12 Affigel containing bound GMP-140 is then loaded into a column and washed overnight at 4° C. with 400 mL of 0.5M NaCl, 20 mM Tris pH 7.5, 0.01% Lubrol PX. Bound P-selectin is eluted from the S12 Affigel with 100 mL of 80% ethylene glycol, 1 mM MES pH 6.0, 0.01% Lubrol PX. Peak fractions with absorbance at 280 nm are pooled. Eluates are dialyzed against TBS with 0.05% Lubrol, then applied to a Mono Q column (FPLC from Pharmacia). The concentrated protein is step eluted with 2M NaCl, 20 mM Tris pH 7.5 (plus 0.05% Lubrol PX for the membrane fraction). Peak fractions are dialyzed into TBS pH 7.5 (plus 0.05% Lubrol PX for the membrane fraction). P-selectin is plated at 5 micrograms/mL and the control proteins: human serum albumin (Alb), platelet glycoprotein IIb/IIIa (IIb), von Willsbrand factor (vWF), fibrinogen (FIB), thrombomodulin (TM), gelatin (GEL) or human serum (HS), are added at 50 micrograms/mL. […]
For “SKKKAALCY-NH2 [SEQ ID NO: 24, SKKKAALCY--NH2]”, the IC50 (commonly the concentration at which inhibition is half-maximal) stood at 232 µM.

Regarding “SKKKHALCY-NH2 [SEQ ID NO: 25, SKKKHALCY--NH2]”, the IC50 came to 656 µM.

For “SKKKIALCY-NH2 [SEQ ID NO: 26, SKKKIALCY--NH2]”, the IC50 was determined as 62 µM.

Consider “SKKKLAFCY-NH2 [SEQ ID NO: 27, SKKKLAFCY--NH2]”, for which the IC50 was 86 µM.

In turn, “SKKKLAICY-NH2 [SEQ ID NO: 28, SKKKLAICY--NH2]” showed an IC50 of 107 µM.

Regarding “SKKKLALCF-NH2 [SEQ ID NO: 29, SKKKLALCF--NH2]”, the IC50 is 65 µM.

In turn, “SKKKLALCI-NH2 [SEQ ID NO: 30, SKKKLALCI--NH2]” gave an IC50 of 867 µM.

Substance “SKKKLALCY-NH2 [SEQ ID NO: 31, SKKKLALCY--NH2]” came in with an IC50 of 19 µM.

With “SKKKLALFY-NH2 [SEQ ID NO: 32, SKKKLALFY--NH2]”, the IC50 was determined as 15 µM.

Substance “SKKKLALHY-NH2 [SEQ ID NO: 36, SKKKLALHY--NH2]” registered an IC50 of 177 µM.

In turn, “SKKKLALIV-NH2 [SEQ ID NO: 33, SKKKLALIV--NH2]” yielded an IC50 of 390 µM.

Consider “SKKKLALIY-NH2 [SEQ ID NO: 35, SKKKLALIY--NH2]”, for which the IC50 amounted to 43 µM.

In turn, “SKKKLALLY-NH2 [SEQ ID NO: 38, SKKKLALLY--NH2]” showed an IC50 of 131 µM.

Substance “SKKKLALTY-NH2 [SEQ ID NO: 41, SKKKLALTY--NH2]” gave an IC50 of 423 µM.

As to “SKKKLALVY-NH2 [SEQ ID NO: 40, SKKKLALVY--NH2]”, the concentration for half-maximal inhibition (IC50) stood at 233 µM.

“SKKKLAPCY-NH2 [SEQ ID NO: 42, SKKKLAPCY--NH2]” returned an IC50 of 897 µM.

As to “SKKKLFLCY-NH2 [SEQ ID NO: 43, SKKKLFLCY--NH2]”, the IC50 came out at 95 µM.

Substance “SKKKLHLCY-NH2 [SEQ ID NO: 44, SKKKLHLCY--NH2]” had an IC50 of 207 µM.

In the case of “SKKKLILCY-NH2 [SEQ ID NO: 45, SKKKLILCY--NH2]”, the IC50 was found to be 95 µM.

Consider “SKKKLQACY-NH2 [SEQ ID NO: 46, SKKKLQACY--NH2]”, for which the IC50 was 329 µM.

The substance “SKKQLALCY-NH2 [SEQ ID NO: 48, SKKQLALCY--NH2]” returned an IC50 of 195 µM.

As for “SKKRLALCY-NH2 [SEQ ID NO: 50, SKKRLALCY--NH2]”, the IC50 was 4 µM.

As to “SKLKLALCY-NH2 [SEQ ID NO: 52, SKLKLALCY--NH2]”, the IC50 was found to be 9 µM.

“SKRKLALCY-NH2 [SEQ ID NO: 54, SKRKLALCY--NH2]” displayed an IC50 of 4 µM.

For “SKRKRALCY-NH2 [SEQ ID NO: 56, SKRKRALCY--NH2]”, the IC50 was 24 µM.

For the substance “SKRRLALCY-NH2 [SEQ ID NO: 58, SKRRLALCY--NH2]”, the IC50 is 8 µM.

On to “SKRRLALSY-NH2 [SEQ ID NO: 59, SKRRLALSY--NH2]”, for which the IC50 worked out at 632 µM.

In the case of “SKSKLALCY-NH2 [SEQ ID NO: 60, SKSKLALCY--NH2]”, the IC50 was determined as 858 µM.

For the substance “SRKKLALCY-NH2 [SEQ ID NO: 64, SRKKLALCY--NH2]”, the IC50 was 16 µM.

For “SRKRLALCY-NH2 [SEQ ID NO: 66, SRKRLALCY--NH2]”, the IC50 turned out to be 3 µM.

The substance “SRKRLALSY-NH2 [SEQ ID NO: 67, SRKRLALSY--NH2]” had an IC50 of 586 µM.

For the substance “SRRKLALCY-NH2 [SEQ ID NO: 69, SRRKLALCY--NH2]”, the IC50 turned out to be 14 µM.

In turn, “SSKKLALCY-NH2 [SEQ ID NO: 70, SSKKLALCY--NH2]” gave an IC50 of 282 µM.
